Read-outs that look alike come from different tables or passages of the source.

The values that follow come from paper PMC9230870, “Investigation of the Uptake and Transport of Two Novel Camptothecin Derivatives in Caco-2 Cell Monolayers” (Molecules, 2022).

The target of data set [1] is T1, P-gp (Homo sapiens, UniProt P08183). Nature of the data set: Cellular uptake in Caco-2 cells with P-gp inhibitor Verapamil. The conditions noted are these: 1 µM Verapamil pre-incubation 30 min, 0.2-1.0 μM, 37 °C, 4 h. Further details: endogenous in cells; host or cells: Caco-2. It counts as in vitro ADME. As to the method: (§1) Caco-2 cells were plated in a 6-well plate at a density of 2 × 10^5 cells/well and cultured at 37 °C. After reaching 80% confluence, Caco-2 cells could be used in the uptake experiments. Next, the cells were washed twice with HBSS and pre-incubated with HBSS or 1 µM Verapamil or Gefitinib for 30 min. After pre-incubation, the drug-free HBSS was replaced by FaSSIF containing FL118, FL77-28, or FL77-29 (0.2, 0.4, 0.6, 0.8, and 1.0 μM), and then incubated for 4 h at 37 °C or 4 °C, respectively. Next, the cells were collected and lysed by freezing and thawing three times. Then, the cells were sonicated and centrifuged at 10,000 rpm for 10 min. Finally, the supernatants were used to measure concentrations of compounds and proteins by HPLC and Bradford methods.
(§2) Using the Shimadzu HPLC system (Shimadzu, Kyoto, Japan), the samples taken from the uptake experiment and the transport studies were eluted on a C18 reverse-phase column (250 mm × 4.6 mm, 5 μm, Elite, Dalian). The column was maintained at 40 °C and the absorbance detector wavelength was 365 nm. The mobile phase used for FL118, FL77-28, and FL77-29 consisted of acetonitrile: 0.1% formic acid (40:60, v/v), (60:40, v/v), and (65:35, v/v). The flow rate was 1.0 mL/min, and the injection volume was 20 μL. The retention times of FL118, FL77-28, and FL77-29 were 6.109 min (Figure 1A), 8.456 min (Figure 1B), and 6.351 min (Figure 1C), respectively. Calibration curves were constructed over a concentration range of 0.03–1.00 μM. […] The concentration of FL118, FL77-28, and FL77-29 was determined according to the typical equations.

Data set [2] deals with Caco-2 cells. As to the method: (§3) HCT 116, HeLa, A549, Hep G2, and Caco-2 cell lines were obtained from the China Center for Type Culture Collection, CCTCC (Wuhan, China). They were cultured in DMEM, including 10% FBS, 1% penicillin (l00 μg/mL), and 1% streptomycin (l00 μg/mL), in a constant temperature incubator at 37 °C with 5% CO2.
The cytotoxicity of FL118, FL77-28, and FL77-29 against HCT116, HeLa, A549 HepG2, and Caco-2 cell lines were measured using MTT assays. The cells were plated into 96-well plates at a density of 2 × 10^4 cells/mL and cultured for 24 h. […] After incubation with 20 µL of 5 mg/mL MTT solution for 4 h, the supernatant was gently discarded and 150 µL of DMSO was added to dissolve the formazan crystals. Finally, the absorbance was measured at 570 nm and the background was subtracted at 630 nm using an ELISA Plate Reader.

Data set [3] relates to Caco-2 cells. Nature of the data set: Cellular uptake in Caco-2 cells, effect of temperature. In kind it is in vitro ADME. The conditions noted are these: 4 °C versus 37 °C, 4 h, 0.2-1.0 μM. As to the method: as §1, §2
For a further data set, the system named is Hep G2. Nature of the data set: MTT cytotoxicity assay, Hep G2. In kind it is cell-based. The conditions noted are these: 72 h, mean ± SD (n = 3). On the procedure: as §3
(§4) The cytotoxicity of FL118, FL77-28, and FL77-29 against HCT116, HeLa, A549 HepG2, and Caco-2 cell lines were measured using MTT assays. The cells were plated into 96-well plates at a density of 2 × 10^4 cells/mL and cultured for 24 h. Next, the cells were treated with 0.0125–0.500 μM of FL118, FL77-28, and FL77-29 for 4 h or 72 h. After incubation with 20 µL of 5 mg/mL MTT solution for 4 h, the supernatant was gently discarded and 150 µL of DMSO was added to dissolve the formazan crystals. Finally, the absorbance was measured at 570 nm and the background was subtracted at 630 nm using an ELISA Plate Reader.
On the technique in general: Tetrazolium assays rely on reduction of a dye to a coloured formazan, in cell work by metabolically active cells.

In the next data set the test system is HeLa. Nature of the data set: MTT cytotoxicity assay, HeLa. In kind it is cell-based. The conditions noted are these: 72 h, mean ± SD (n = 3). As to the method:
as §3, §4

The next data set deals with HCT 116. Nature of the data set: MTT cytotoxicity assay, HCT 116. The conditions noted are these: HCT 116, MTT, 72 h, mean ± SD (n = 3). In kind it is cell-based. On the procedure: as §3, §4
The next data set deals with A549. Nature of the data set: MTT cytotoxicity assay, A549. The conditions noted are these: 72 h, mean ± SD (n = 3). In kind it is cell-based. On the procedure:
as §3, §4

The subject of another data set is Caco-2 cell monolayers. Nature of the data set: Transport across Caco-2 cell monolayers. In kind it is in vitro ADME. The conditions noted are these: for Papp AP-BL / efflux ratio (ER) = Papp BL-AP/Papp AP-BL: 1.0 μM; for Papp AP-BL: AP FaSSIF pH 6.5, BL HBSS pH 7.4; for efflux ratio (ER) = Papp BL-AP/Papp AP-BL: Caco-2 monolayer. As to the method:
When Caco-2 cells reached 80–90% confluence in T-25 flasks, the cells were digested, centrifuged, and resuspended. After seeding at a density of 2 × 10^5 cells/well onto the apical of the Transwell® plate, 0.5 mL of 10% DMEM was added into the apical (AP) chamber and 1.5 mL of 10% DMEM was added into the basolateral (BL) chamber. The buffer was refreshed every two days, and after one week it was refreshed daily and incubated until 21 days.
The integrity of the Caco-2 cell monolayer was evaluated by measuring the transepithelial electrical resistance (TEER) and the permeability of Lucifer yellow (LY). The TEER was measured using Millicell® ERS-2 voltameter (Bedford, USA). The Caco-2 cell model was used for the transport of FL77-28 and FL77-29 when the TEER values exceeded 300 Ω/cm^2. The TEER value was also measured at the end of the transport experiment. In addition, the permeability of LY, a paracellular transport marker, was also measured for the tightness of epithelial cells. […] Then, the fluorescence of samples was measured at excitation/emission wavelengths of 492/520 nm using the ELISA Plate.
Before the transport studies, the Caco-2 cell monolayers were washed twice with warm HBSS containing 15 mM glucose, 10 mM HEPES, and 1% BSA (pH 7.4) and pre-incubated for 30 min at 37 °C [26]. Next, HBSS was discarded and replaced with 0.5/1.0 µM of FL77-28 and FL77-29 dissolved in a different buffer on one side of the cell layer, 0.5 mL for the AP side and 1.5 mL for the BL side. The buffer at the AP was FaSSIF (pH 6.5) and the buffer at the BL was HBSS. Then, the monolayers were incubated at 37 °C. A sample aliquot of 0.5 mL (AP-BL) or 0.25 mL (BL-AP) was taken from the receiving compartment at different time points (120, 150, 180, 210, and 240 min) and then replaced with an equal volume of fresh pre-warmed buffer. The concentrations of FL77-28 and FL77-29 in the sample were determined by HPLC.
as §2
The concentration of each sample was measured by HPLC. The Papp of FL77-28 and FL77-29 was calculated according to the following equation:Papp (cm/s) = V/(C0·A)·(ΔQ/Δt)(1) where V (cm^3) is the volume of the receiver compartment, A is the monolayer surface area of the Transwell insert (1.12 cm^2), C0 is the initial drug concentration in the donor compartment, and (ΔQ/Δt) is the transport rate.
The efflux ratio (ER) was calculated using the following equation:ER = Papp BL-AP/Papp AP-BL(2)
(Caco-2 monolayers are a common model of the intestinal barrier.)

Data set [4] deals with T2, BCRP (Homo sapiens, UniProt Q9UNQ0).
T2 construct: endogenous in cells; host or cells: Caco-2
T2 sequence (Q9UNQ0 1-655): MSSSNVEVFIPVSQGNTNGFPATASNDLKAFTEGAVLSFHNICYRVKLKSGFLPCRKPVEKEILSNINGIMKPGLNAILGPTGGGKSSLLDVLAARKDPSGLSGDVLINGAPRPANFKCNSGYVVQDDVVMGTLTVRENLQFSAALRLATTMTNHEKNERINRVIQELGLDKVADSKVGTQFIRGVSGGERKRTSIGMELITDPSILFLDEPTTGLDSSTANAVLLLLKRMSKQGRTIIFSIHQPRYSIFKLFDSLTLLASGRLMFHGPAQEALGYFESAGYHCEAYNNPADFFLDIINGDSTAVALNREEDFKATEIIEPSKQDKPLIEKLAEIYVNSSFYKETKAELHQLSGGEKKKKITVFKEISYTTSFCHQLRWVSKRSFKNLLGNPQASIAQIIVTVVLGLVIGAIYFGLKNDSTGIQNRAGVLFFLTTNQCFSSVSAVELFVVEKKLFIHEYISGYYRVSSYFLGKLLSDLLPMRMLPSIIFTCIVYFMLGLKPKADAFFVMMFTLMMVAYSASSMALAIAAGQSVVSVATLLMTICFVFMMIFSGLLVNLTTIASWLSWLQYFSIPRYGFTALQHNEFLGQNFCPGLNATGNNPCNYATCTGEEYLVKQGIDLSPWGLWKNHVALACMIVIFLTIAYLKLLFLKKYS
Nature of the data set: Cellular uptake in Caco-2 cells with BCRP inhibitor Gefitinib. In kind it is in vitro ADME. The conditions noted are these: 1 µM Gefitinib pre-incubation 30 min, 0.2-1.0 μM, 37 °C, 4 h. On the procedure:
as §1, §2

Data set [5] concerns the target T2, BCRP. The conditions noted are these: cited from earlier work.
Data set [6] addresses T1, P-gp. The conditions noted are these: cited from earlier work.
The mark [7] stands for this setting: Caco-2 cells, 0.2 to 1.0 μM, 4 h, MTT.

T1 sequence (P08183 whole entry): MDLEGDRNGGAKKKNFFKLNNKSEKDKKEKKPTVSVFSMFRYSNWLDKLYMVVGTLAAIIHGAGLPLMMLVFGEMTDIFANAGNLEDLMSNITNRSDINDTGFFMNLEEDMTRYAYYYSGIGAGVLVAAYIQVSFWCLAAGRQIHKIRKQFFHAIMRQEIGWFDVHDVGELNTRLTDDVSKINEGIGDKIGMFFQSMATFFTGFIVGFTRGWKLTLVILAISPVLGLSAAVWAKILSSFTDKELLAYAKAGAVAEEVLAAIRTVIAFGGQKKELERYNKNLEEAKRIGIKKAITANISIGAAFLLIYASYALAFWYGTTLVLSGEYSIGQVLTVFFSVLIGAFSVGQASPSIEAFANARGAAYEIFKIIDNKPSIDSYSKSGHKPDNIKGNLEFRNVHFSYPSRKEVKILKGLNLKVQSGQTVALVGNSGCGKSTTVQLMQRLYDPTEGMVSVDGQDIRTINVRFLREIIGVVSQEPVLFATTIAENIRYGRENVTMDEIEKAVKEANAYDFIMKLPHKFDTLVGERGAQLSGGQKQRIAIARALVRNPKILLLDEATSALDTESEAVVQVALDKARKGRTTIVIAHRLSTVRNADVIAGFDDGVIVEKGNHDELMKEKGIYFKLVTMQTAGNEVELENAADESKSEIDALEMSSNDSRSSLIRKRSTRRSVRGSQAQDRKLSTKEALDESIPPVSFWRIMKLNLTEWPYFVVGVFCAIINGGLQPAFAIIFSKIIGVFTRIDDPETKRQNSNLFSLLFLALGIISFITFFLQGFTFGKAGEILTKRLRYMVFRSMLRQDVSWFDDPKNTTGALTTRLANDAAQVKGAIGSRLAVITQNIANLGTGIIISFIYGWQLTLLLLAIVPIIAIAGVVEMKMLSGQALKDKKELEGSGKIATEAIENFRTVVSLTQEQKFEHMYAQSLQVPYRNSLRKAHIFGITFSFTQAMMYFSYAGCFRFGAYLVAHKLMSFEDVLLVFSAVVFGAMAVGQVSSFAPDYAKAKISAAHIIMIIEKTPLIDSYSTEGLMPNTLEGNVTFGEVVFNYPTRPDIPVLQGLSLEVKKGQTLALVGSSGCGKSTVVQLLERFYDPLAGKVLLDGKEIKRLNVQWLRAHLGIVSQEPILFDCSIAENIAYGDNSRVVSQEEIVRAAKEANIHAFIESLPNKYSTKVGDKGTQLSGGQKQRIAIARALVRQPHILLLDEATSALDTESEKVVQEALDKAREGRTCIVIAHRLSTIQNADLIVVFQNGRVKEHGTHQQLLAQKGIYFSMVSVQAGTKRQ

One may read the IC50 as the concentration at which inhibition is half-maximal. A higher IC50 goes with weaker potency. On to `CC[C@@]1(O)C(=O)OCc2c1cc1n(c2=O)Cc2c-1nc1cc3c(cc1c2-c1ccc(C)c(F)c1)OCO3` [FL77-28, 7-(3-Fluoro-4-methylphenyl)-10,11-methylenedioxy-20(S)-CPT], for which the “substrate of P-gp (uptake with Verapamil)” value on P-gp [1] is on record as “not substrates of P-gp”. Also, the cell viability entry with Caco-2 cells [2] (setting [7]) is “above 90%”. Moreover, the “effect of temperature on cellular uptake” value in the data set with Caco-2 cells [3] is “no significant effect”. Besides, the half-inhibitory concentration (IC50) with Hep G2 is 65 ± 1 nM; with HeLa, 22 ± 7 nM; in the data set with HCT 116, 45 ± 14 nM; with A549, 48 ± 7 nM. The “Papp AP-BL” value in the data set on Caco-2 cell monolayers (37 °C) is 2.32 ± 0.04 × 10^−6 cm/s. Besides, the “efflux ratio (ER) = Papp BL-AP/Papp AP-BL” value in the data set with Caco-2 cell monolayers was found to be 1.14. The “substrate of BCRP (uptake with Gefitinib)” value at BCRP [4] is given as “not substrates of P-gp or BCRP”.

Turning to `CC[C@@]1(O)C(=O)OCc2c1cc1n(c2=O)Cc2c-1nc1cc3c(cc1c2-c1ccc(F)c(C)c1)OCO3` [FL77-29, 7-(4-Fluoro-3-methylphenyl)-10,11-methylenedioxy-20(S)-CPT], the “substrate of P-gp (uptake with Verapamil)” value on P-gp [1] was “mediated by P-gp”. Further, the cell viability entry in the data set on Caco-2 cells [2] (setting [7]) is “above 90%”. Besides, the “effect of temperature on cellular uptake” value in the data set on Caco-2 cells [3] is “incubation at 4 °C significantly increased the cellar uptake”. The IC50 was determined as 34 ± 2 nM with Hep G2, 36 ± 4 nM in the data set with HeLa, 25 ± 3 nM with HCT 116 and 28 ± 4 nM in the data set on A549. The “Papp AP-BL” value in the data set on Caco-2 cell monolayers (37 °C) was 2.48 ± 0.18 × 10^−6 cm/s. The “efflux ratio (ER) = Papp BL-AP/Papp AP-BL” value in the data set with Caco-2 cell monolayers is 1.40. Also, on BCRP [4], the “substrate of BCRP (uptake with Gefitinib)” value was “not a substrate for BCRP”.

Regarding `CC[C@@]1(O)C(=O)OCc2c1cc1n(c2=O)Cc2cc3cc4c(cc3nc2-1)OCO4` [FL118, 10,11-methylenedioxy-20(S)-CPT, reference compound], the “substrate of P-gp (uptake with Verapamil)” value on P-gp [1] is on record as “not substrates of P-gp”. Besides, in the data set on Caco-2 cells [2], the cell viability entry is “above 90%”. Moreover, on BCRP [5], the “substrate of BCRP” value is “not being a substrate for P-gp or BCRP”. The “effect of temperature on cellular uptake” value in the data set on Caco-2 cells [3] is listed as “no significant effect”. Moreover, the IC50 with Hep G2 was 104 ± 2 nM; with HeLa, 40 ± 3 nM; with HCT 116 it was 50 ± 4 nM; with A549, 43 ± 4 nM. Moreover, at P-gp [6], the “substrate of P-gp” value is “not being a substrate for P-gp”. For the same compound, the “substrate of BCRP (uptake with Gefitinib)” value at BCRP [4] is “not substrates of P-gp or BCRP”.

In the case of Lucifer yellow [LY, reference compound], the “Papp of LY (monolayer integrity marker)” value in the data set with Caco-2 cell monolayers (20 µg/mL, 2 h, 37 °C) is listed as 0.57 ± 0.14 × 10^−6 cm/s.
